Here are results for 21 compounds from PubChem BioAssay (NCI).

What all share (experiment): NCI tumour cell line growth inhibition, 48 h
In test [1] the test system is MDA-N.
Test [2] has as its system T-47D breast.
Test [3] concerns DLD-1 colon.
The subject of test [4] is LXFL 529 NSCLC.
Test [5] concerns RXF-631 renal.
Test [6] has as its system DMS 273 small cell lung.
Test [7] has as its system SNB-78 CNS.
The test system of test [8] is KM20L2 colon.
Test [9] relates to HOP-18 NSCLC.
In test [10] the test system is SN12K1 renal.
Test [11] has as its system P388 leukemia.

Values joined by “and” are separate entries in the source; they are usually repeats but may differ in a detail not shown here. Equal entries are not always repeated.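 Method: 48-hour compound exposure of cells in 96-well plates, five concentrations, linear interpolation of endpoints. At the GI50, growth is halved. TGI: total growth inhibition.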

Regarding `CC(=O)O[C@H]1CC[C@@]2(C)[C@@H](CC[C@@H]3[C@@H]2CC(=O)[C@@]2(C)[C@H]3C[C@@H]3CC(C)=CC(=O)[C@@H]32)C1`, the TGI in test [1] and in [2] was more than 100 µM each time.

As for `CCC1(O)CC(c2ccccc2)N(C)C(c2ccccc2)C1` (stereo not given), the TGI in test [3], in test [4], in test [5], in test [6], in test [7] and in test [8] was more than 100 µM throughout.

Consider `O=c1c2ccc(Br)cc2nc(-c2ccccc2)n1NC1OC(CO)C(O)C(O)C1O` (stereo not given), for which the TGI in test [9], in test [4], in test [6], in test [7] and in [8] was more than 100 µM in each case.

`COc1ccc(/C=C/c2cnnc3ccccc23)cc1OC`: the TGI in [1] and in test [2] was more than 10 µM each time.

For the compound `Nc1nc(N)c(N=Nc2ccc([As](=O)(O)O)c(O)c2)c(N)n1`, the TGI was 5.29 µM in test [1] and more than 100 µM in test [2].

As for `CC1(C)OC(=O)C(c2ccsc2)C(=O)O1`, the TGI in test [9], in test [3], in test [4], in test [5], in test [6] and in test [7] was more than 100 µM throughout. This compound returned a TGI in [8] of more than 100 µM.

For `O=C(c1ccccc1)C(c1ccccc1)C1(O)C(=O)Nc2ccc(Br)cc21` (stereo not given), the TGI was more than 100 µM in test [3]; 53.1 µM in test [4]; more than 100 µM in [5]; more than 100 µM in test [6]; more than 100 µM in test [7]; more than 100 µM in [8].

Turning to `O=P1(NCCCl)OCCC(OO)N1CCCl` (stereo not given), the TGI was more than 100 µM in [9]; 50.5 µM in test [3]; more than 100 µM in test [1]; more than 100 µM in test [6]; 86.7 µM in [7]; 17.7 µM in [2]. This compound also came in with a TGI in test [8] of more than 100 µM.

With `Fc1cccc(C2SCc3nc4ccccc4n32)c1` (stereo not given), the TGI in [3], in test [4], in [5], in test [6] and in test [7] was more than 100 µM in each case.

As for `Cc1cc2c(C=O)[nH]nc2c(C#N)c1C`, the TGI in test [3], in test [4], in test [5], in test [6], in [7] and in test [8] was more than 100 µM throughout.

For the compound `COc1cc(C2C(C(=O)Nc3ccccc3C)=C(C)NC(C)=C2C(=O)Nc2ccccc2C)ccc1O`, the TGI in test [9], in test [3], in test [4], in test [5], in [6] and in test [7] was more than 100 µM each time. In test [8], the TGI was more than 100 µM.

For the compound `O=C(O)c1cccc(F)c1C(=O)c1ccc2ccccc2c1`, the TGI in test [1] and in [2] was more than 100 µM in each case.

On to `O=C1OC(=O)C2C1C1(c3ccccc3)OC2(c2ccccc2)c2c(Br)c(Br)c(Br)c(Br)c21` (stereo not given), for which the TGI in [9], in [3], in test [4], in [6], in test [7] and in test [8] was more than 100 µM in each case.

`NC1=C(O)/C(=N/NS(=O)(=O)c2ccccc2)C(c2cccc(Cl)c2)O1` (stereo not given): the TGI in test [9] was more than 100 µM; in test [3], 31.7 µM; in test [4], 35.8 µM; in test [1] it was 37.9 µM; in test [6], more than 100 µM; in test [7], more than 100 µM. Also, the TGI in [8] is more than 85.6 µM.

Regarding `CCN(CC)[C@@H]1c2cc3c(cc2C(c2cc(OC)c(O)c(OC)c2)C2C(=O)CO[C@@H]21)OCO3` (stereo not given in full), the TGI in test [3], in [4], in [5], in test [6] and in test [8] was more than 100 µM in each case.

For `CCOC(=O)/C(C#N)=C/c1[nH]c(C)c(C)c1C`, the TGI in [9], in test [3], in [4], in test [6], in test [7] and in test [8] was more than 100 µM in each case.

In the case of `O=C(Nc1ccc(-n2cc(-c3ccncc3)c(-c3ccc(Cl)c(O)c3)n2)cc1)c1ccc(Cl)c(C(F)(F)F)c1`, in [2], the GI50 was 3.03 µM and the TGI was more than 34.9 µM.

Regarding `CCOc1ccc(-n2cc(-c3ccc(N(C)C)cc3)[n+]3c2CCCCC3)cc1`, the GI50 in test [2] was 0.0692 µM.

As for `COc1ccc(/C=C\c2cc(OC)c(OC(C)=O)c(OC)c2)cc1`, the TGI in test [3] is more than 100 µM; in [4], more than 100 µM; in test [5], more than 100 µM; in test [6], more than 100 µM; in [7], 73.9 µM; in test [8] it was more than 100 µM.

Take `COc1ccc(-n2cc(-c3ccc(F)cc3)[nH]c2=O)cc1OC`: in test [2], the GI50 is more than 100 µM and the TGI was more than 100 µM.

Take `N[C@@H](Cc1ccc(N(CCCl)CCCl)cc1)C(=O)O`: the GI50 in test [9] was 23.7 µM and 55.1 µM; in test [3], 24.5 µM; in [10], 11.8 µM; in [6] it was 6.97 µM; in [7], 25.6 µM; in test [2] it was 34.3 µM. Moreover, the figures for the GI50 in test [11] and in test [8] were 1.79 µM and 14 µM, respectively. For the same compound, the TGI was 64.5 µM and 158 µM in [9]; > 92 µM and 193 µM in [3]; 110 µM in test [4]; 60.5 µM and 102 µM in [10]; 126 µM in [1]; 33.6 µM and 68.3 µM in test [6]. The TGI was 83.7 µM and 205 µM in [7]; > 100 µM and 116 µM in test [2]; 35.9 µM and 42.9 µM in [11]; > 31.6 µM and 193 µM in test [8].
